Data taken from the NIST ThermoML archive (doi:10.1021/je1012857).

Test: xn = mol fraction of the nth substance listed
Conditions: 101 kPa, Liquid; for speed of sound: Sing-around technique in a fixed-path interferometer; for viscosity: Capillary tube (Ostwald / Ubbelohde) method

NCCN [ethane-1,2-diamine] + CC(C)CO
Conditions | mass density [kg/m3] | speed of sound [m/s] | viscosity [mPa·s]
293.15 K, x1 = 0.0664 | 809.959 | 1236.6 | –
293.15 K, x1 = 0.0967 | 813.41 | 1250.3 | –
293.15 K, x1 = 0.1652 | 821.052 | 1280.8 | –
293.15 K, x1 = 0.2002 | 824.886 | 1296.8 | –
293.15 K, x1 = 0.2617 | 831.17 | 1324.1 | –
293.15 K, x1 = 0.3019 | 835.134 | 1342.3 | –
293.15 K, x1 = 0.4093 | 844.755 | 1389.6 | –
293.15 K, x1 = 0.5014 | 852.563 | 1431 | –
293.15 K, x1 = 0.6011 | 861.131 | 1478 | –
293.15 K, x1 = 0.6911 | 868.086 | 1520.5 | –
293.15 K, x1 = 0.7887 | 876.941 | 1571.6 | –
293.15 K, x1 = 0.8471 | 882.565 | 1603.7 | –
293.15 K, x1 = 0.8998 | 887.801 | 1634.3 | –
293.15 K, x1 = 0.9391 | 892.054 | 1658.5 | –
298.15 K, x1 = 0.0664 | 806.006 | 1219.4 | 3.231
298.15 K, x1 = 0.0967 | 809.413 | 1233.1 | 3.209
298.15 K, x1 = 0.1652 | 816.964 | 1263.3 | 3.134
298.15 K, x1 = 0.2002 | 820.75 | 1279.2 | 3.094
298.15 K, x1 = 0.2617 | 826.969 | 1306.3 | 3.006
298.15 K, x1 = 0.3019 | 830.903 | 1324.5 | 2.94
298.15 K, x1 = 0.4093 | 840.455 | 1371.4 | 2.724
298.15 K, x1 = 0.5014 | 848.217 | 1412.2 | 2.495
298.15 K, x1 = 0.6011 | 856.736 | 1458.7 | 2.216
298.15 K, x1 = 0.6911 | 863.637 | 1500.6 | 1.958
298.15 K, x1 = 0.7887 | 872.42 | 1550.9 | 1.716
298.15 K, x1 = 0.8471 | 878.003 | 1582.6 | 1.591
298.15 K, x1 = 0.8998 | 883.197 | 1612.7 | 1.501
298.15 K, x1 = 0.9391 | 887.411 | 1636.5 | 1.456
303.15 K, x1 = 0.0664 | 802.02 | 1202.4 | 2.711
303.15 K, x1 = 0.0967 | 805.385 | 1216 | 2.699
303.15 K, x1 = 0.1652 | 812.854 | 1246.1 | 2.648
303.15 K, x1 = 0.2002 | 816.592 | 1261.8 | 2.625
303.15 K, x1 = 0.2617 | 822.547 | 1288.6 | 2.553
303.15 K, x1 = 0.3019 | 826.644 | 1306.7 | 2.502
303.15 K, x1 = 0.4093 | 836.134 | 1353.1 | 2.325
303.15 K, x1 = 0.5014 | 843.853 | 1393.5 | 2.135
303.15 K, x1 = 0.6011 | 852.325 | 1439.5 | 1.895
303.15 K, x1 = 0.6911 | 859.166 | 1480.6 | 1.698
303.15 K, x1 = 0.7887 | 867.883 | 1530.2 | 1.502
303.15 K, x1 = 0.8471 | 873.42 | 1561.5 | 1.404
303.15 K, x1 = 0.8998 | 878.575 | 1591.2 | 1.335
303.15 K, x1 = 0.9391 | 882.76 | 1614.6 | 1.294
308.15 K, x1 = 0.0664 | 797.994 | 1185.4 | 2.18
308.15 K, x1 = 0.0967 | 801.327 | 1198.8 | 2.169
308.15 K, x1 = 0.1652 | 808.708 | 1228.7 | 2.147
308.15 K, x1 = 0.2002 | 812.41 | 1244.4 | 2.135
308.15 K, x1 = 0.2617 | 818.501 | 1271.1 | 2.097
308.15 K, x1 = 0.3019 | 822.366 | 1288.9 | 2.059
308.15 K, x1 = 0.4093 | 831.795 | 1334.9 | 1.924
308.15 K, x1 = 0.5014 | 839.474 | 1374.9 | 1.776
308.15 K, x1 = 0.6011 | 847.896 | 1420.2 | 1.583
308.15 K, x1 = 0.6911 | 854.681 | 1460.9 | 1.446
308.15 K, x1 = 0.7887 | 863.336 | 1509.8 | 1.314
308.15 K, x1 = 0.8471 | 868.829 | 1540.7 | 1.248
308.15 K, x1 = 0.8998 | 873.941 | 1570.1 | 1.191
308.15 K, x1 = 0.9391 | 878.094 | 1593.1 | 1.154
313.15 K, x1 = 0.0664 | 793.931 | 1168.4 | –
313.15 K, x1 = 0.0967 | 797.223 | 1181.6 | –
313.15 K, x1 = 0.1652 | 804.528 | 1211.5 | –
313.15 K, x1 = 0.2002 | 808.187 | 1227.1 | –
313.15 K, x1 = 0.2617 | 814.225 | 1253.6 | –
313.15 K, x1 = 0.3019 | 818.055 | 1271.2 | –
313.15 K, x1 = 0.4093 | 827.425 | 1316.9 | –
313.15 K, x1 = 0.5014 | 835.064 | 1356.4 | –
313.15 K, x1 = 0.6011 | 843.444 | 1400.9 | –
313.15 K, x1 = 0.6911 | 850.175 | 1441.2 | –
313.15 K, x1 = 0.7887 | 858.761 | 1489.6 | –
313.15 K, x1 = 0.8471 | 864.211 | 1520.1 | –
313.15 K, x1 = 0.8998 | 869.284 | 1548.9 | –
313.15 K, x1 = 0.9391 | 873.407 | 1571.7 | –
